Source: PMC4852132 (Biochemistry, 2016)
Read-outs that look alike come from different tables or passages of the source.

Assays:
E1p-h [1] = target: T1, E1p-h (Homo sapiens, UniProt P08559+P11177); test: CD titration of E1p-h by acetylphosphinate; assay type: binding; conditions: read-out: Kd,AcPhi
T1 sequence (P08559 30-390): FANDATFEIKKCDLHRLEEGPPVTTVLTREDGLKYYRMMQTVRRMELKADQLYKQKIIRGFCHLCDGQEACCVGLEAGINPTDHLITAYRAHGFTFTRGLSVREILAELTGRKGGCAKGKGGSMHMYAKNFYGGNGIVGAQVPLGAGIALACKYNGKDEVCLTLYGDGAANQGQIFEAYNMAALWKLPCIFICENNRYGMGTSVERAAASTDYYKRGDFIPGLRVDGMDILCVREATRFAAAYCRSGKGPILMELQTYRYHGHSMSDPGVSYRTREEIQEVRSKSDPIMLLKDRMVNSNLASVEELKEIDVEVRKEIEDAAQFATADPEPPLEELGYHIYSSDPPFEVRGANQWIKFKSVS
T1 sequence (P11177 31-359): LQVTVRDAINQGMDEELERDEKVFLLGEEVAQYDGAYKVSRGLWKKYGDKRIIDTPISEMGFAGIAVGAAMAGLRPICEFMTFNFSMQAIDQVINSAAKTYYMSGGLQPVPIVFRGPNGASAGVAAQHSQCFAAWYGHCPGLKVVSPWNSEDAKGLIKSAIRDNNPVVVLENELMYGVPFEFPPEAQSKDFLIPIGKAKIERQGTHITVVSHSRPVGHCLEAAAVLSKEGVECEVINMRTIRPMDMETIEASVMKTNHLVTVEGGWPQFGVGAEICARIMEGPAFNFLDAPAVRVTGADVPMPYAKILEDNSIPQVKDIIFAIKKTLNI

E1p-ec [2] = target: T2, E1p-ec (Escherichia coli, UniProt P0AFG8); conditions: read-out: Ki,AcPhi, reversible tight-binding inhibitor; cited from earlier work
T2 sequence (P0AFG8 2-887 limits assumed): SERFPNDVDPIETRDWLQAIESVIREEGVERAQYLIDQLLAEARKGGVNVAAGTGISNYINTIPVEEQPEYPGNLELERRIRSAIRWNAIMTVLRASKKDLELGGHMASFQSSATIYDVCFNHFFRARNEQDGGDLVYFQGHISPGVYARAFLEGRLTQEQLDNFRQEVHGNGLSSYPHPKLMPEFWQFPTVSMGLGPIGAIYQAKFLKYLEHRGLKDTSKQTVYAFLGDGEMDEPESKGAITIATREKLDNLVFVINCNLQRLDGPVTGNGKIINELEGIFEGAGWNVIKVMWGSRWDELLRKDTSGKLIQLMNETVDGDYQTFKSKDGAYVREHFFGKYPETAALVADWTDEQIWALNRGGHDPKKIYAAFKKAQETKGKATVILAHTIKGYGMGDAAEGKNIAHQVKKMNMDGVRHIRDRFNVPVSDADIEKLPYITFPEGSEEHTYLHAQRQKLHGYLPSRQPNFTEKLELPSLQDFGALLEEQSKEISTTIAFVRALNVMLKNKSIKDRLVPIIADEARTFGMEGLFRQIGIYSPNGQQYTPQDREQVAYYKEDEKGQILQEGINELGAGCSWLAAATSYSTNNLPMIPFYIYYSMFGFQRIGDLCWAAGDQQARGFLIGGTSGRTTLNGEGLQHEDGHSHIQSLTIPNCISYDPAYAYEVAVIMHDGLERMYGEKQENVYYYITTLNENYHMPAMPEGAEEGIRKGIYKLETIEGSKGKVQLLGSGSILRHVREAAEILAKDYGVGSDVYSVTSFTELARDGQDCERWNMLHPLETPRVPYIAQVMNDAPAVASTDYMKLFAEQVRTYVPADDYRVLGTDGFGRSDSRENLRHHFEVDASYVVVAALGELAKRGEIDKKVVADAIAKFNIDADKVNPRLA

E1p-ec [3] = target: T2, E1p-ec; test: CD titration of E1p-ec by acetylphosphinate; assay type: binding; conditions: for Kd: read-out: Kd,AcPhi
E1p-h [4] = target: T1, E1p-h; conditions: read-out: Ki,AcPhi; cited from earlier work
E1p-ec [5] = target: T2, E1p-ec; conditions: read-out: Kd,AcPhi; E1p-ec with ThDP; cited from earlier work
DXPS = DXPS (Escherichia coli, UniProt P77488); test: CD titration of apo-DXPS with ThTTDP; assay type: binding; conditions: for Kd: read-out: Kd,ThTTDP, CD titration, CD331
Sequence of DXPS (P77488 whole entry): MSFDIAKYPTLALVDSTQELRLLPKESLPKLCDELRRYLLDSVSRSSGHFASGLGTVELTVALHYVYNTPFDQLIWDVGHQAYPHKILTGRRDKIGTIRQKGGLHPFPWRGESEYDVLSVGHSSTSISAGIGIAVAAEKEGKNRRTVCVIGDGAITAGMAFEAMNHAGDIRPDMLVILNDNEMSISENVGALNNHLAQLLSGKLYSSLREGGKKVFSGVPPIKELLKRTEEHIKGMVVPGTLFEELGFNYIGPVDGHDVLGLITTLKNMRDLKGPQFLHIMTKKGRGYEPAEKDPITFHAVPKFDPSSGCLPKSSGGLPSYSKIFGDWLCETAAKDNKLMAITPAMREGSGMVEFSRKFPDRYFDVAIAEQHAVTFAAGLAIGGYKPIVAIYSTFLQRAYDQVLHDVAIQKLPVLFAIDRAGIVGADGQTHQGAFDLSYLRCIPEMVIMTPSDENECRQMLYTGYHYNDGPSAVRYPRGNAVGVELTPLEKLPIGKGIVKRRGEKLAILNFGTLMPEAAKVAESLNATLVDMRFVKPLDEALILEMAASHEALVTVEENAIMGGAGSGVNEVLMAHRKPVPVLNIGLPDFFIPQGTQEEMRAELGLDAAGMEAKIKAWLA

[6] = UV spectroscopic determination of the pKa for N1-protonated bacimethrin; assay type: physicochemical; conditions: aqueous triple buffer
[7] = in the presence of 10 µM MeOThDP

SMILES: CC(=O)[PH](=O)[O-].[Na+] [AcPhi, acetylphosphinic acid sodium salt]
- Kd (E1p-h [1]; E1p-h complexed with MeOThDP): 1360 nM
- Kd (E1p-h [1]; E1p-h complexed with ThDP, unpublished data): 43 nM
- Ki (E1p-ec [2]): 760 nM
- [AcPhi]/[E1p-ec] molar ratio at maximal CD intensity (E1p-ec [3]; E1p-ec complexed with ThDP): 1/1
- Kd (E1p-ec [3]; E1p-ec complexed with 0.20 mM MeOThDP, CD303): 1880 nM
- Kd (E1p-ec [3]; E1p-ec complexed with 0.20 mM ThDP, CD319): 36 nM
- Ki (E1p-h [4]): 14 nM
- Kd (E1p-ec [5]): 62 nM

SMILES: Cc1ncc(Cn2c(C)c(CCOP(=O)(O)OP(=O)(O)O)sc2=S)c(N)n1 [ThTTDP, Thiamin 2-thiothiazolone diphosphate]
- [ThTTDP]/[DXPS active centers] molar ratio at saturation (DXPS; [7]): 2.6
- [ThTTDP]/[DXPS active centers] molar ratio at saturation (DXPS; no MeOThDP): 1.26
- Kd (DXPS; [7]): 600 ± 140 nM
- Kd (DXPS; no MeOThDP): 390 ± 100 nM

SMILES: COc1ncc(CO)c(N)n1 [bacimethrin, 4-amino-5-hydroxymethyl-2-methoxypyrimidine]
- pKa [6]: 5.32 ± 0.03
